Results as given in ChEMBL document CHEMBL3611994, “Discovery of 4-benzoylamino-N-(prop-2-yn-1-yl)benzamides as novel microRNA-21 inhibitors” (Bioorg Med Chem, 2015).
Activity calls are given as the source filed them. The calls are words filed in the database; no cut-off is given here.

What was measured:
Nucleic Acid [1] = assay: Inhibition of microRNA-21 in human HeLa cells assessed as reduction in microRNA-21 expression at 10 uM incubated for 24 hrs by stem-loop RT-PCR method; assay type: cell-based
HeLa [2] = assay: Induction of apoptosis in human HeLa cells assessed as necrotic cells level at 10 uM incubated for 48 hrs in presence of 50 uM H2O2 by Annexin V-FITC and propidium iodide staining based flow cytometry (reference value: 1.2%); assay type: functional
U-87 MG [3] = assay: Inhibition of cell proliferation of human U87MG cells assessed as induction of retardation of cell proliferation at 10 uM incubated for 48 hrs in presence of 50 uM H2O2 by CFSE staining based FACS method; assay type: functional; settings: U-87MG ATCC
HeLa [4] = assay: Induction of apoptosis in human HeLa cells assessed as early apoptotic cells level at 10 uM incubated for 48 hrs by Annexin V-FITC and propidium iodide staining based flow cytometry (reference value: 2.9%); assay type: functional
U-87 MG [5] = assay: Inhibition of cell proliferation of human U87MG cells assessed as time required for cell doubling by measuring mean fluorescence intensity at 10 uM incubated for 48 hrs by CFSE staining based FACS method; assay type: functional; settings: U-87MG ATCC
U-87 MG [6] = assay: Induction of apoptosis in human U87MG cells assessed as necrotic cells level at 10 uM incubated for 48 hrs by Annexin V-FITC and propidium iodide staining based flow cytometry (reference value: 1.3%); assay type: functional, U-87MG ATCC
HeLa [7] = assay: Induction of apoptosis in human HeLa cells assessed as necrotic cells level at 10 uM incubated for 48 hrs by Annexin V-FITC and propidium iodide staining based flow cytometry (reference value: 1.2%); assay type: functional
HeLa [8] = assay: Induction of apoptosis in human HeLa cells assessed as late apoptotic cells level at 10 uM incubated for 48 hrs in presence of 50 uM H2O2 by Annexin V-FITC and propidium iodide staining based flow cytometry (reference value: 2.2%); assay type: functional
HeLa [9] = assay: Inhibition of let-7a miRNA in human HeLa cells assessed as reduction in microRNA-21 expression at 10 uM incubated for 24 hrs by RT-qPCR method; assay type: cell-based
HeLa [10] = assay: Effect on universal miRNA biosynthesis pathway-related gene expression in human HeLa assessed as XPO5 gene expression at 10 uM incubated for 24 hrs by RT-qPCR method; assay type: cell-based
Nucleic Acid [11] = assay: Inhibition of microRNA-148 in human HeLa cells assessed as reduction in microRNA-21 expression at 10 uM incubated for 24 hrs by RT-qPCR method; assay type: cell-based
HeLa [12] = assay: Effect on universal miRNA biosynthesis pathway-related gene expression in human HeLa assessed as DGCR8 gene expression at 10 uM incubated for 24 hrs by RT-qPCR method; assay type: cell-based
HeLa [13] = assay: Effect on universal miRNA biosynthesis pathway-related gene expression in human HeLa assessed as TARBP2 gene expression at 10 uM incubated for 24 hrs by RT-qPCR method; assay type: ADME, cell-based
Nucleic Acid [14] = assay: Inhibition of microRNA-25 in human HeLa cells assessed as reduction in microRNA-21 expression at 10 uM incubated for 24 hrs by RT-qPCR method; assay type: cell-based
HeLa [15] = assay: Inhibition of cell proliferation of human HeLa cells assessed as induction of retardation of cell proliferation at 10 uM incubated for 48 hrs by CFSE staining based FACS method; assay type: functional
HeLa [16] = assay: Induction of apoptosis in human HeLa cells assessed as late apoptotic cells level at 10 uM incubated for 48 hrs by Annexin V-FITC and propidium iodide staining based flow cytometry (reference value: 2.2%); assay type: functional
Nucleic Acid [17] = assay: Inhibition of microRNA-126 in human HeLa cells assessed as reduction in microRNA-21 expression at 10 uM incubated for 24 hrs by RT-qPCR method; assay type: cell-based
HeLa [18] = assay: Effect on universal miRNA biosynthesis pathway-related gene expression in human HeLa assessed as DICER1 gene expression at 10 uM incubated for 24 hrs by RT-qPCR method; assay type: cell-based
Nucleic Acid [19] = assay: Inhibition of microRNA-21 in human HeLa cells assessed as reduction in microRNA-21 expression at 2.5 to 20 uM incubated for 24 hrs by stem-loop RT-PCR method; assay type: cell-based
Nucleic Acid [20] = assay: Inhibition of microRNA-26 in human HeLa cells assessed as reduction in microRNA-21 expression at 10 uM incubated for 24 hrs by RT-qPCR method; assay type: cell-based
U-87 MG [21] = assay: Inhibition of cell proliferation of human U87MG cells assessed as induction of retardation of cell proliferation at 10 uM incubated for 48 hrs by CFSE staining based FACS method; assay type: functional; settings: U-87MG ATCC
Nucleic Acid [22] = assay: Inhibition of microRNA-133 in human HeLa cells assessed as reduction in microRNA-21 expression at 10 uM incubated for 24 hrs by RT-qPCR method; assay type: cell-based
HeLa [23] = assay: Effect on universal miRNA biosynthesis pathway-related gene expression in human HeLa assessed as DROSHA gene expression at 10 uM incubated for 24 hrs by RT-qPCR method; assay type: cell-based
U-87 MG [24] = assay: Inhibition of cell proliferation of human U87MG cells assessed as time required for cell doubling by measuring mean fluorescence intensity at 10 uM incubated for 48 hrs in presence of 50 uM H2O2 by CFSE staining based FACS method; assay type: functional; settings: U-87MG ATCC
HeLa [25] = assay: Induction of apoptosis in human HeLa cells assessed as viable cells level at 10 uM incubated for 48 hrs in presence of 50 uM H2O2 by Annexin V-FITC and propidium iodide staining based flow cytometry (reference value: 93.7%); assay type: functional
U-87 MG [26] = assay: Induction of apoptosis in human U87MG cells assessed as late apoptotic cells level at 10 uM incubated for 48 hrs in presence of 50 uM H2O2 by Annexin V-FITC and propidium iodide staining based flow cytometry (reference value: 2.6%); assay type: functional, U-87MG ATCC
Nucleic Acid [27] = assay: Inhibition of microRNA-145 in human HeLa cells assessed as reduction in microRNA-21 expression at 10 uM incubated for 24 hrs by RT-qPCR method; assay type: cell-based
U-87 MG [28] = assay: Induction of apoptosis in human U87MG cells assessed as late apoptotic cells level at 10 uM incubated for 48 hrs by Annexin V-FITC and propidium iodide staining based flow cytometry (reference value: 2.6%); assay type: functional, U-87MG ATCC
U-87 MG [29] = assay: Induction of apoptosis in human U87MG cells assessed as early apoptotic cells level at 10 uM incubated for 48 hrs by Annexin V-FITC and propidium iodide staining based flow cytometry (reference value: 2%); assay type: functional, U-87MG ATCC
Nucleic Acid [30] = assay: Inhibition of microRNA-143 in human HeLa cells assessed as reduction in microRNA-21 expression at 10 uM incubated for 24 hrs by RT-qPCR method; assay type: cell-based
Nucleic Acid [31] = assay: Inhibition of microRNA-21 in human HeLa cells assessed as reduction in microRNA-21 expression at 10 uM incubated for 6 to 48 hrs by stem-loop RT-PCR method; assay type: cell-based
HeLa [32] = assay: Induction of apoptosis in human HeLa cells assessed as viable cells level at 10 uM incubated for 48 hrs by Annexin V-FITC and propidium iodide staining based flow cytometry (reference value: 93.7%); assay type: functional
HeLa [33] = assay: Effect on universal miRNA biosynthesis pathway-related gene expression in human HeLa assessed as AGO2 gene expression at 10 uM incubated for 24 hrs by RT-qPCR method; assay type: cell-based
Nucleic Acid [34] = assay: Inhibition of microRNA-152 in human HeLa cells assessed as reduction in microRNA-21 expression at 10 uM incubated for 24 hrs by RT-qPCR method; assay type: cell-based
U-87 MG [35] = assay: Induction of apoptosis in human U87MG cells assessed as viable cells level at 10 uM incubated for 48 hrs by Annexin V-FITC and propidium iodide staining based flow cytometry (reference value: 94.1%); assay type: functional, U-87MG ATCC
HeLa [36] = assay: Inhibition of cell proliferation of human HeLa cells assessed as induction of retardation of cell proliferation at 10 uM incubated for 48 hrs in presence of 50 uM H2O2 by CFSE staining based FACS method; assay type: functional
U-87 MG [37] = assay: Induction of apoptosis in human U87MG cells assessed as viable cells level at 10 uM incubated for 48 hrs in presence of 50 uM H2O2 by Annexin V-FITC and propidium iodide staining based flow cytometry (reference value: 94.1%); assay type: functional, U-87MG ATCC
Nucleic Acid [38] = assay: Inhibition of microRNA-21 in human HeLa cells assessed as increase in PDCD4 protein expression at 10 uM incubated for 48 hrs by Western blot method; assay type: cell-based
U-87 MG [39] = assay: Induction of apoptosis in human U87MG cells assessed as necrotic cells level at 10 uM incubated for 48 hrs in presence of 50 uM H2O2 by Annexin V-FITC and propidium iodide staining based flow cytometry (reference value: 1.3%); assay type: functional, U-87MG ATCC
Nucleic Acid [40] = assay: Inhibition of microRNA-195 in human HeLa cells assessed as reduction in microRNA-21 expression at 10 uM incubated for 24 hrs by RT-qPCR method; assay type: cell-based
U-87 MG [41] = assay: Induction of apoptosis in human U87MG cells assessed as early apoptotic cells level at 10 uM incubated for 48 hrs in presence of 50 uM H2O2 by Annexin V-FITC and propidium iodide staining based flow cytometry (reference value: 2%); assay type: functional, U-87MG ATCC
Nucleic Acid [42] = assay: Inhibition of microRNA-146 in human HeLa cells assessed as reduction in microRNA-21 expression at 10 uM incubated for 24 hrs by RT-qPCR method; assay type: cell-based
HeLa [43] = assay: Induction of apoptosis in human HeLa cells assessed as early apoptotic cells level at 10 uM incubated for 48 hrs in presence of 50 uM H2O2 by Annexin V-FITC and propidium iodide staining based flow cytometry (reference value: 2.9%); assay type: functional

## C#CCNC(=O)c1ccc(NC(=O)c2ccc(OC)cc2OC)cc1
Nucleic Acid [1]
  inhibition: Active

## C#CCNC(=O)c1ccc(NC(=O)c2cc(OC)ccc2OC)cc1
Nucleic Acid [1]
  inhibition: Active

## C#CCNC(=O)c1ccc(NC(=O)c2ccc(OC)c(OCc3ccccc3)c2)cc1
Nucleic Acid [1]
  inhibition: Active

## C#CCNC(=O)c1ccc(NC(=O)c2cccnc2)cc1
Nucleic Acid [1]
  inhibition: Active

## C#CCNC(=O)c1ccc(NC(=O)c2ccccc2Br)cc1
HeLa [2]
  Activity: 4.5%
U-87 MG [3]
  inhibition: Active
HeLa [4]
  Activity: 3.5%
U-87 MG [5]
  inhibition: Active
U-87 MG [6]
  Activity: 1.7%
HeLa [7]
  Activity: 1.5%
HeLa [8]
  Activity: 19.1%
HeLa [9]
  inhibition: inactive
HeLa [10]
  Activity: Non-toxic
Nucleic Acid [11]
  inhibition: inactive
HeLa [12]
  Activity: Non-toxic
HeLa [13]
  Activity: Non-toxic
Nucleic Acid [14]
  inhibition: inactive
HeLa [15]
  inhibition: Active
HeLa [16]
  Activity: 3.4%
Nucleic Acid [17]
  inhibition: inactive
HeLa [18]
  Activity: Non-toxic
Nucleic Acid [19]
  inhibition: Active
Nucleic Acid [20]
  inhibition: inactive
U-87 MG [21]
  inhibition: Active
Nucleic Acid [22]
  inhibition: inactive
HeLa [23]
  Activity: Non-toxic
U-87 MG [24]
  inhibition: Active
HeLa [25]
  Activity: 67.5%
U-87 MG [26]
  Activity: 10.2%
Nucleic Acid [27]
  inhibition: inactive
U-87 MG [28]
  Activity: 4%
Nucleic Acid [1]
  inhibition: Active
U-87 MG [29]
  Activity: 2.3%
Nucleic Acid [30]
  inhibition: inactive
Nucleic Acid [31]
  inhibition: Active
HeLa [32]
  Activity: 91.6%
HeLa [33]
  Activity: Non-toxic
Nucleic Acid [34]
  inhibition: inactive
U-87 MG [35]
  Activity: 91.9%
HeLa [36]
  inhibition: Active
U-87 MG [37]
  Activity: 82.4%
Nucleic Acid [38]
  inhibition: Active
U-87 MG [39]
  Activity: 3.5%
Nucleic Acid [40]
  inhibition: inactive
U-87 MG [41]
  Activity: 3.9%
Nucleic Acid [42]
  inhibition: inactive
HeLa [43]
  Activity: 8.9%

## C#CCNC(=O)c1ccc(/N=N/c2ccccc2)cc1
Nucleic Acid [1]
  inhibition: Active
Nucleic Acid [38]
  inhibition: Active

## C#CCNC(=O)c1ccc(NC(=O)c2cccc(I)c2)cc1
Nucleic Acid [1]
  inhibition: Active
